This note sets out measurements from ChEMBL document CHEMBL1909623, “Synthesis and preliminary evaluation of amiloride analogs as inhibitors of the urokinase-type plasminogen activator (uPA)” (Bioorg Med Chem Lett, 2011).

The target of assay [1] is T1, Urokinase-type plasminogen activator (Homo sapiens, UniProt P00749). The assay can be described thus: Inhibition of urokinase-type plasminogen activator.
Assay [2] concerns the target Sodium/hydrogen exchanger 1 (Homo sapiens) (UniProt P19634). The experiment in a line: Inhibition of NHE1.
The target of assay [3] is T1, Urokinase-type plasminogen activator. The assay can be described thus: Ratio of compound K0.5 to amiloride K0.5 for urokinase-type plasminogen activator.
Assay [4] deals with Sodium/hydrogen exchanger 1 (Homo sapiens) (UniProt P19634). The assay can be described thus: Ratio of compound K0.5 to amiloride K0.5 for NHE1.
Sodium/hydrogen exchanger 1 (Homo sapiens), sequence (P19634 whole entry): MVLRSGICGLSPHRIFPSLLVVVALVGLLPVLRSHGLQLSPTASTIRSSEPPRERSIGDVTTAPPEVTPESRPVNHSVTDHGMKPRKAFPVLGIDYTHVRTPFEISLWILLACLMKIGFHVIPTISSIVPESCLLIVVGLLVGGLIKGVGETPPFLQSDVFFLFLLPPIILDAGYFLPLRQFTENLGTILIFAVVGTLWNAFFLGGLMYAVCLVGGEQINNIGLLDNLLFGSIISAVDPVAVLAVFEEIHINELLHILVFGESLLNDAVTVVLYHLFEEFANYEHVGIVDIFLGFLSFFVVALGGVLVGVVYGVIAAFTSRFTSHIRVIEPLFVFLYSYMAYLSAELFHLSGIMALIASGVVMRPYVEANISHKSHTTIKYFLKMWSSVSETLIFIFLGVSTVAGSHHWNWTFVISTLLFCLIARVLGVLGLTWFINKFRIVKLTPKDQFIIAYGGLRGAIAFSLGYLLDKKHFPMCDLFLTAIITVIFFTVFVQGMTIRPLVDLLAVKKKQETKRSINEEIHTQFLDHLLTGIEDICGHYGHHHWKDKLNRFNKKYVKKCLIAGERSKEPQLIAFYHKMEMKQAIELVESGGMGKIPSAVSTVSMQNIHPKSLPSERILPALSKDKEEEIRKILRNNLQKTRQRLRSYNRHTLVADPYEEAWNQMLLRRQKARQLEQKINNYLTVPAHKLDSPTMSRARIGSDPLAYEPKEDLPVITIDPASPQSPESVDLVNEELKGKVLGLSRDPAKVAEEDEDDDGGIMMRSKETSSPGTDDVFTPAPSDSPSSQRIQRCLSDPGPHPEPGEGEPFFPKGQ

As to `N=C(N)NC(=O)c1nc(Cl)c(NCCP(=O)(O)O)nc1N`, the concentration for half-maximal inhibition (IC50) (usually the concentration that gives 50% inhibition) in assay [1] was above 1000 µM. Still for that read-out and setting: then `N#CCNc1nc(N)c(C(=O)NC(=N)N)nc1Cl`, with 50 µM. Turning to `N=C(N)NC(=O)c1nc(Cl)c(N)nc1N`, the K0.5 in assay [2] was 7 µM.

With `N=C(N)NC(=O)c1cnc(Cl)c(Cl)c1`, the IC50 in assay [1] is above 1000 µM. In assay [1], `N=C(N)NC(=O)c1nc(Cl)c(NCCc2ccccc2)nc1N` came in with an IC50 of 16 µM. The same measure, in the same setting: for `N=C(N)NC(=O)c1cnccn1` the value was above 1000 µM; for `N=C(N)NC(=O)c1ncc(NCCc2ccccc2)nc1N`, 120 µM.

In assay [1], `N=C(N)NC(=O)c1c[nH]cn1` displayed an IC50 above 1000 µM. As to `N=C(N)NC(=O)c1nc(Br)c(N)nc1N`, the IC50 in assay [1] is 5 µM. Compound `CCOP(=O)(CCNc1nc(N)c(C(=O)NC(=N)N)nc1Cl)OCC` returned an IC50 in assay [1] of 44 µM. In turn, `N=C(N)NC(=O)c1nc(Cl)c(NCc2cccnc2)nc1N` came in with an IC50 in assay [1] of 17 µM. Consider `N=C(N)NC(=O)c1cnc(N)c(Br)n1`, for which, in assay [1], the IC50 is above 1000 µM. For the compound `CN(CCNc1nc(N)c(C(=O)NC(=N)N)nc1Cl)Cc1ccccc1`, it took 15 µM to reach half-maximal inhibition in assay [1] (IC50). `N=C(N)NC(=O)c1nc(Cl)c(NCC[n+]2ccccc2)nc1N` returned a half-inhibitory concentration (IC50) in assay [1] of 30 µM.

With `COC(=O)CNc1nc(N)c(C(=O)NC(=N)N)nc1Cl`, in assay [1], 26 µM corresponded to half-maximal inhibition (IC50). With `N=C(N)NC(=O)c1nc(Cl)c(NCP(=O)(O)O)nc1N`, the half-maximal inhibitory concentration (IC50) in assay [1] is above 1000 µM. In assay [1], `N=C(N)NC(=O)c1nc(Cl)c(NCc2ccccn2)nc1N` returned a concentration for half-maximal inhibition (IC50) of 38 µM. That is a double-digit micromolar value. In turn, `N=C(N)NC(=O)c1nc(Cl)cnc1N` gave a concentration for half-maximal inhibition (IC50) in assay [1] above 1000 µM.

`N=C(N)NC(=O)c1nc(Cl)c(NCc2ccccc2)nc1N` returned an IC50 in assay [1] of 8 µM. `N=C(N)NC(=O)c1nc(Cl)c(NCCNCc2ccccc2)nc1N`: 28 µM corresponded to half-maximal inhibition in assay [1] (IC50). On the same count and under the same terms, for `N=C(N)NC(=O)c1nc(Cl)c(NCCSCc2ccccc2)nc1N` the value was 21 µM.

With `CCN(c1nc(N)c(C(=O)NC(=N)N)nc1Cl)C(C)C`, in assay [3], the Ratio IC50 came to 2. Also, the IC50 in assay [1] stood at 6 µM. The Ratio in assay [4] came out at 140. Turning to `N=C(N)NC(=O)c1nc(Br)c(N2CCCCCC2)nc1N`, in assay [4], the Ratio stood at 566. Regarding `N=C(N)NC(=O)c1cccnc1` [AMINO(NICOTINAMIDO)METHANIMINIUM CHLORIDE], the IC50 in assay [1] is above 1000 µM. On the same count and under the same terms, for `N=C(N)NC(=O)c1nc(-c2ccccc2)c(N)nc1N` the value was 10 µM. `N=C(N)NC(=O)c1nc(Cl)c(N2CCCCCC2)nc1N`: the Ratio IC50 in assay [3] stood at 2. Also, inhibition in assay [1] was half-maximal at 6 µM (IC50). Also, in assay [4], the Ratio was 524. For the compound `N=C(N)NC(=O)c1ccccn1` [AMINO(PICOLINAMIDO)METHANIMINIUM CHLORIDE], the half-inhibitory concentration (IC50) in assay [1] was above 1000 µM. The same measure, in the same setting: for `N=C(N)NC(=O)c1nc(Cl)c(NCc2ccc(F)cc2)nc1N` the value was 6 µM; for `CCOP(=O)(CNc1nc(N)c(C(=O)NC(=N)N)nc1Cl)OCC`, 37 µM; for `COc1cc(N)c(Cl)cc1C(=O)NC(=N)N`, 222 µM. With `CCN(c1nc(N)c(C(=O)NC(=N)N)nc1I)C(C)C`, the Ratio in assay [4] is 313.

For the compound `N#CCCNc1nc(N)c(C(=O)NC(=N)N)nc1Cl`, it took 16 µM to reach half-maximal inhibition in assay [1] (IC50).

The compound `N=C(N)NC(=O)c1nc(Cl)c(NCCc2nnn[nH]2)nc1N` came in with a half-inhibitory concentration (IC50) in assay [1] of 61 µM. In turn, `N=C(N)NC(=O)c1ncc(N)nc1N` had an IC50 in assay [1] of 19 µM. `N=C(N)NC(=O)c1nc(Cl)c(NCCC(=O)O)nc1N` registered a half-inhibitory concentration (IC50) in assay [1] of 102 µM. Compared with the last compound, the IC50 is about 5.4-fold higher. In turn, `N=C(N)NC(=O)c1nc(Cl)c(NCc2ccncc2)nc1N` registered an IC50 in assay [1] of 6 µM. On the same count and under the same terms, then `N=C(N)NC(=O)c1ccccc1` [AMINO(BENZAMIDO)METHANIMINIUM CHLORIDE], with above 1000 µM; and `CCOP(=O)(O)CCNc1nc(N)c(C(=O)NC(=N)N)nc1Cl`, with above 1000 µM. Same read-out and setting: for `N=C(N)NC(=O)c1nc(C#Cc2ccccc2)c(N)nc1N` the value was 2 µM; for `Nc1noc(-c2nc(Cl)c(N)nc2N)n1`, above 1000 µM.

Consider `N=C(N)NC(=O)c1nc(Cl)c(NCC(=O)O)nc1N`, for which, in assay [1], inhibition was half-maximal at 110 µM (IC50). For `Cc1ccc(S(=O)(=O)NCCNc2nc(N)c(C(=O)NC(=N)N)nc2Cl)cc1`, in assay [1], the IC50 was 35 µM.

As to `CCN(CC)CCNc1nc(N)c(C(=O)NC(=N)N)nc1Cl`, 14 µM corresponded to half-maximal inhibition in assay [1] (IC50). As to `N=C(N)NC(=O)c1nc(Cl)c(NCCS(=O)(=O)Cc2ccccc2)nc1N`, the half-maximal inhibitory concentration (IC50) in assay [1] came to 15 µM. The same measure, in the same setting: for `CCOC(=O)CCNc1nc(N)c(C(=O)NC(=N)N)nc1Cl` the value was 25 µM; for `N=C(N)NC(=O)c1ncc(NCc2ccccc2)nc1N`, 43 µM. For `NNC(=O)c1nc(Cl)c(N)nc1N`, the IC50 in assay [1] was above 1000 µM.

Regarding `N=C(N)NC(=O)c1nc(Cl)c(NCCS(=O)(=O)O)nc1N`, the IC50 in assay [1] was above 1000 µM. Still for that read-out and setting: for `CCOP(=O)(NNc1nc(N)c(C(=O)NC(=N)N)nc1Cl)OCC` the value was 10 µM. For `N=C(N)NC(=O)c1nc(I)c(N)nc1N`, in assay [1], inhibition was half-maximal at 2 µM (IC50). Same read-out and setting: for `N=C(N)NC(=O)c1nc(Cl)c(NCc2nnn[nH]2)nc1N` the value was 177 µM.
